Results reported in patent US5135746A, “Control of protozoal disease” (Takeda Chemical Industries, Ltd., priority 1989, dated 1992).
Values joined by “and” are separate entries in the source; they are usually repeats but may differ in a detail not shown here. Equal values may be shown once.

Columns and labels:
[1] = tested on: Laboratory Standard Strain Eimeria tenella; experiment: Anticoccidial effect in White Leghorn chicks infected with laboratory standard strain Eimeria tenella, drugs in feed for 9 days (Table 1); type: in vivo; design: Caecal Lesion: scale not given here; settings: for OPG: day7; for Caecal Lesion: day-8
Procedure: (§1) The effect of the drugs to coccidiosis was examined using chicks. Namely, nine-day-old White Leghorn male chicks were divided into groups each of which consists of 3 chicks, and 5×10^4 sporulated oocysts per chick of laboratory standard strain Eimeria tenella were orally inoculated into the chicks in all groups except for the control group in which the chicks were not infected and not dosed with the drugs, at 24 hours after the start of dosing. Prescribed amounts of respective plant components dried and crushed and monensin sodium or salinomycin sodium were added to the basal feed (SDL No. 1: Nippon Haigo Shiryo), and continuously administered by the free ingesting method for 9 days from 24 hours before infection to 8 days after infection. The weight of each chick was measured, and the bloody dropping were observed. Further, the chicks were autopsied at day-8 after infection to examine the caecel lesion. Thus, the anticoccidial effect of the administered test drugs was determined.
Note ^1) Weight gain ratio = (Average weight gain for each test
Note ^2) The bloody feces index is indicated by the number of bloody
Note ^3) The caecal lesion is indicated by an average score when
Note ^5) The ND means "not detected".

[2] = Acute toxicity by oral administration to mice; settings: mouse, in vivo
[3] = tested on: Laboratory Standard Strain Eimeria tenella (AMD); experiment: Combined effect of ionophore antibiotics and Rhizophoraceae bark in infected chicks (Table 5); type: in vivo
Procedure: as §1
The combined administration effect of the ionophore antibiotics and Rhizophoraceae bark was examined, by an infection experiment method in accordance with the method in Example 1.

[4] = tested on: Field Isolate Eimeria tenella (AMD); experiment: Anticoccidial effect in chicks infected with field isolate Eimeria tenella (AMD) resistant against ionophore antibiotics, 30,000 oocysts per chick (Tables 2-4); type: in vivo
[5] = tested on: Field Chicken Coocidia of Mixed Species; experiment: Combined effect of monensin and Rhizophoraceae bark in chicks infected with field coccidia of mixed species, 10,000 oocysts per chick (Table 6); type: in vivo, mixed strain containing five or more kinds of coccidia; settings: 80 ppm in feed
Procedure: as §1
Using the mixed strain (large size oocysts: 5%, middle size oocysts: 72%, small size oocysts: 23%) collected in the field and containing five or more kinds of coccidia, the combined administration effect of monensin and Rhizophoraceae bark against chicks infected with 10,000 oocysts per chick was examined, by an infection experiment method in accordance with the method in Example 1. In Table 6, the general intestine lesion value was obtained by converting the sum of values judged by the five steps from 0 to +4 to a value per chick, for the lesion of upper, middle and lower parts of small intestine and caecum, according to the method described in Johnson and Reid, Exp. Parasitol. 28, 30-36 (1970). Other determinations were carried out in the same manner as with Example 1.

Compound: C=CCc1ccc(O)c(-c2cc(CC=C)ccc2O)c1 [Magnolol]
- Mortality ([1]; 125 ppm in feed): 0/3
- No. of Bloody Droppings ([1]; 125 ppm in feed): 13.3
- Weight Gain Ratio ([1]; 125 ppm in feed): 62.5%
- OPG ([1]; 125 ppm in feed): 5.3 log
- Caecal Lesion ([1]; 125 ppm in feed): 4.0
- Mortality ([1]; 250 ppm in feed): 0/3
- No. of Bloody Droppings ([1]; 250 ppm in feed): 3.7
- Weight Gain Ratio ([1]; 250 ppm in feed): 89.3%
- OPG ([1]; 250 ppm in feed): 5.8 log
- Caecal Lesion ([1]; 250 ppm in feed): 4.0
- Mortality ([1]; 500 ppm in feed): 0/3
- No. of Bloody Droppings ([1]; 500 ppm in feed): 1.3
- Weight Gain Ratio ([1]; 500 ppm in feed): 94.5%
- OPG ([1]; 500 ppm in feed): 3.2 log
- Caecal Lesion ([1]; 500 ppm in feed): 3.3
- LD50 [2]: 2200 mg/kg

Compound: CC[C@@H](C(=O)[C@@H](C)[C@@H](O)[C@H](C)[C@@H]1O[C@@H]([C@@H](CC)C(=O)O)CC[C@@H]1C)[C@H]1O[C@]2(C=C[C@@H](O)[C@]3(CC[C@@](C)([C@H]4CC[C@](O)(CC)[C@H](C)O4)O3)O2)[C@H](C)C[C@@H]1C [Salinomycin, salinomycin sodium]
- Caecal Lesion ([3]; 50 ppm in feed): 3.6
- Mortality ([3]; 50 ppm in feed): 1/9
- No. of Bloody Droppings ([3]; 50 ppm in feed): 7.0
- Weight Gain Ratio ([3]; 50 ppm in feed): 62%
- Caecal Lesion ([4]; 50 ppm in feed): 3.2
- Mortality ([4]; 50 ppm in feed): 0/5
- No. of Bloody Droppings ([4]; 50 ppm in feed): 9.0
- OPG ([4]; 50 ppm in feed): 5.8 log
- Weight Gain Ratio ([4]; 50 ppm in feed): 80.3%

Compound: CCC1(C2OC(C3OC(O)(CO)C(C)CC3C)CC2C)CCC(C2(C)CCC3(CC(O)C(C)C(C(C)C(OC)C(C)C(=O)O)O3)O2)O1 (stereo not shown) [Monensin, monensin sodium]
- Mortality ([1]; 40 ppm in feed): 1/3
- No. of Bloody Droppings ([1]; 40 ppm in feed): 13.3
- Weight Gain Ratio ([1]; 40 ppm in feed): 36.7%
- OPG ([1]; 40 ppm in feed): 4.5 log
- Caecal Lesion ([1]; 40 ppm in feed): 4.0
- Mortality ([1]; 60 ppm in feed): 0/3
- No. of Bloody Droppings ([1]; 60 ppm in feed): 7.3
- Weight Gain Ratio ([1]; 60 ppm in feed): 92.9%
- OPG ([1]; 60 ppm in feed): 4.6 log
- Caecal Lesion ([1]; 60 ppm in feed): 4.0
- Mortality ([1]; 80 ppm in feed): 0/6
- No. of Bloody Droppings ([1]; 80 ppm in feed): 1.0
- Weight Gain Ratio ([1]; 80 ppm in feed): 103.2%
- OPG ([1]; 80 ppm in feed): 4.3 log
- Caecal Lesion ([1]; 80 ppm in feed): 2.2
- Mortality ([1]; 120 ppm in feed): 0/6
- No. of Bloody Droppings ([1]; 120 ppm in feed): 0
- Weight Gain Ratio ([1]; 120 ppm in feed): 103.2%
- OPG ([1]; 120 ppm in feed): 3.4 log
- Caecal Lesion ([1]; 120 ppm in feed): 0
- Caecal Lesion ([3]; 80 ppm in feed): 3.2
- Mortality ([3]; 80 ppm in feed): 0/9
- No. of Bloody Droppings ([3]; 80 ppm in feed): 5.0
- Weight Gain Ratio ([3]; 80 ppm in feed): 88%
- Caecal Lesion ([4]; 80 ppm in feed): 4.0 and 3.8
- Mortality ([4]; 80 ppm in feed): 0/5
- No. of Bloody Droppings ([4]; 80 ppm in feed): 10.0 and 9.0
- OPG ([4]; 80 ppm in feed): 6.2 log and 6.1 log
- Weight Gain Ratio ([4]; 80 ppm in feed): 54.8% and 72.3%
- Caecal Lesion ([4]; 100 ppm in feed): 4.0
- Mortality ([4]; 100 ppm in feed): 0/5
- No. of Bloody Droppings ([4]; 100 ppm in feed): 8.0
- OPG ([4]; 100 ppm in feed): 6.1 log
- Weight Gain Ratio ([4]; 100 ppm in feed): 72.6%
- Mortality ([4]; 160 ppm in feed): 0/5
- No. of Bloody Droppings ([4]; 160 ppm in feed): 0
- OPG ([4]; 160 ppm in feed): 4.7 log
- Weight Gain Ratio ([4]; 160 ppm in feed): 81.5% and 86.5%
- Caecal Lesion ([4]; 240 ppm in feed): 0
- Mortality ([4]; 240 ppm in feed): 0/5
- No. of Bloody Droppings ([4]; 240 ppm in feed): 0
- Weight Gain Ratio ([4]; 240 ppm in feed): 46.5%
- concentration at which sufficient antiprotozoal activity is shown ([4]; in feed): ≥ 160 ppm
- Mortality [5]: 1/6
- No. of Bloody Droppings [5]: 6.0
- Weight Gain Ratio [5]: 89%
- Caecal Lesion ([5]; general intestine lesion value): 5.5

Compound: C=CCc1ccc(O)c(-c2ccc(O)c(CC=C)c2)c1 [Honokiol, honokiol]
- Mortality ([1]; 125 ppm in feed): 1/3
- No. of Bloody Droppings ([1]; 125 ppm in feed): 13.3
- Weight Gain Ratio ([1]; 125 ppm in feed): 41.6%
- OPG ([1]; 125 ppm in feed): 5.1 log
- Caecal Lesion ([1]; 125 ppm in feed): 4.0
- Mortality ([1]; 500 ppm in feed): 0/3
- No. of Bloody Droppings ([1]; 500 ppm in feed): 1.0
- Weight Gain Ratio ([1]; 500 ppm in feed): 99.4%
- OPG ([1]; 500 ppm in feed): 4.9 log
- Caecal Lesion ([1]; 500 ppm in feed): 3.3
